Where two headings read alike, the source gives them in different places.
What was measured:
[1] = Absorption test at upper and lower portions of the digestive tract (Test Example 8); assay type: in vivo; settings: rats; for AUC: read-out: AUCO-2 hr
Method: (§1) Preparations of Examples 1, 2, 4 and 5 and Comparative Example 1 were directly administered in a large intestine loop of female rats (3 or 4 rats per group) in the amount of 100 mg/kg calculated on the basis of cilostazol (CLZ). Then, blood was collected with a lapse of time and cilostazol concentration in blood was measured. An average cilostazol concentration in blood is shown in Table 10 and pharmacokinetic parameters after administration are shown in Table 11.
Absorption Test of Slightly Soluble Drug at Upper and Lower Portions of the Digestive Tract.
In the same manner as in Test Example 1, preparations of Example 2 and Comparative Examples 1 and 5 were directly administered in the duodenum and the large intestine of rats. Then, blood was collected with a lapse of time and cilostazol concentration in blood was measured.

[2] = Absorption test of cilostazol into the large intestine (Test Example 1); assay type: in vivo, rats
Method: Absorption Test of Cilostazol into the Large Intestine
as §1

[3] = Cilostazol dissolution test, Paddle method, 0.3% SLS (Test Example 2); assay type: physicochemical
Method: Preparations of Examples 1, 2 and 4 and Comparative Example 1 were weighed in the amount of 100 mg calculated on the basis of cilostazol and subjected to a dissolution test under the following conditions. To evaluate the dissolution rate, the dissolution percentage was compared after two minutes had passed since the beginning of the test.
Conditions of Dissolution Test
Dissolution test solution: 900 mL of aqueous 0.3% sodium lauryl sulfate solution
Amount of sample: amount corresponding to 100 mg of cilostazol per vessel

[4] = rat, blood, female rats, large intestine loop, 100 mg/kg as CLZ
[5] = directly administered in the duodenum

SMILES | AUC ([1]; female, rat, blood, 100 mg/kg, directly administered in the duodenum) | Cmax ([1]; female, rat, blood, 100 mg/kg, directly administered in the duodenum, read-out: Cmax) | AUCO-2 hr ([1]; directly administered in the large intestine) | concentration at 0 hr ([2]; rat, blood, other: directly administered in a large intestine loop, female rats, direct administration in large intestine loop, 100 mg/kg as CLZ, time after administration 0 hr) | concentration at 0.083 hr ([2]; rat, blood, other: directly administered in a large intestine loop, female rats, large intestine loop, 100 mg/kg as CLZ, 0.083 hr after administration) | concentration at 0.25 hr ([2]; rat, blood, other: directly administered in a large intestine loop, female rats, large intestine loop, 100 mg/kg as CLZ, 0.25 hr after administration) | concentration at 0.5 hr ([2]; rat, blood, other: directly administered in a large intestine loop, female rats, large intestine loop, 100 mg/kg as CLZ, 0.5 hr after administration) | concentration at 1 hr ([2]; rat, blood, other: directly administered in a large intestine loop, female rats, large intestine loop, 100 mg/kg as CLZ, 1.0 hr after administration) | concentration at 2 hr ([2]; rat, blood, other: directly administered in a large intestine loop, female rats, large intestine loop, 100 mg/kg as CLZ, 2.0 hr after administration) | Cmax [2, 4] | Tmax [2, 4] | AUC(0-t) ([2]; rat, blood, female rats, large intestine loop, 100 mg/kg as CLZ, read-out: AUC0–2 hr) | blood concentration attained (in words) ([2]; rats, large intestine, within two hours after administration) | dissolution rate / dissolution percentage (in words) ([3]; 0.3% SLS, Paddle 75 rpm) | Dissolution percentage after 2 minutes ([3]; 900 mL aqueous 0.3% sodium lauryl sulfate, Paddle method 75 rpm, 100 mg cilostazol per vessel) | AUC ([1]; female, rat, blood, 100 mg/kg, directly administered in the large intestine) | Cmax ([1]; female, rat, blood, 100 mg/kg, directly administered in the large intestine, read-out: Cmax) | AUCO-2 hr [1, 5] | Cmax [1, 5]
O=C1CCc2cc(OCCCCc3nnnn3C3CCCCC3)ccc2N1 [Comp. Example 1, cilostazol] | 2590 ng·h/mL | 1900 ng/mL | 186 ng·h/mL | 0 ng/mL | 15 ng/mL | 26 ng/mL | 51 ng/mL | 100 ng/mL | 170 ng/mL | 170 ng/mL | 2 h | 186 ng·h/mL | sufficient blood concentration was not obtained | low dissolution rate | 22.7% |  |  |  | 
O=C1CCc2cc(OCCCCc3nnnn3C3CCCCC3)ccc2N1 [Comp. Example 5, cilostazol] |  |  |  |  |  |  |  |  |  |  |  |  |  |  |  | 236 ng·h/mL | 168 ng/mL | 3682 ng·h/mL | 3002 ng/mL

From patent US7144585B1, “Cilostazol preparation” (Otsuka Pharmaceutical Co., Ltd., priority 1999, dated 2006)
